The values below come from paper PMC9182141, “Assay Development and Identification of the First Plasmodium falciparum 7,8-dihydro-6-hydroxymethylpterin-pyrophosphokinase Inhibitors” (Molecules, 2022).

Structures can show the parent of a compound that is named as a salt.

Experiment [1] deals with Vero cell line (African green monkey kidney cells). Nature of the experiment: Cytotoxicity, sulforhodamine B assay, Vero cells. The settings on record: Chlorocebus sabaeus, 72 h, when no IC50 could be determined, highest tested concentration noted. It is filed as cell-based. In general terms: Sulforhodamine B stains cellular protein and so reports cell mass.
Experiment [2] concerns KB cell line (human epithelial carcinoma cells). Nature of the experiment: Cytotoxicity, sulforhodamine B assay, KB cells. It is filed as cell-based. The settings on record: 72 h, when no IC50 could be determined, highest tested concentration noted.
Experiment [3] relates to Plasmodium falciparum TM4/8.2 (drug sensitive). Nature of the experiment: Antimalarial activity, [3H]-hypoxanthine incorporation assay, TM4/8.2. It is filed as cell-based. The settings on record: P. falciparum TM4/8.2 (drug sensitive), when no IC50 could be determined, highest tested concentration noted. The protocol:
(§1) Finally, the various hit compounds were tested for their antimalarial activity against P. falciparum TM4/8.2 [26] and V1/S [27] strains. Parasite cultures were treated with test compounds at different concentrations, and antimalarial activity was measured using [3H]-hypoxanthine incorporation assay, according to our previously reported protocol. […] IC50 values could not be measured for other compounds. At this stage, there is no explanation for the difference in antiparasitic activity observed between TM4/8.2 and V1/S strains, and more investigations would be needed to conclude on this effect.
(§2) Compounds were tested for their antimalarial activity against P. falciparum TM4/8.2 [26] and V1/S [27] strains according to our previously reported protocol. In brief, parasite strains were maintained continuously in human erythrocytes in RPMI1640 supplemented with 25 mM HEPES pH 7.4, 0.2% NaHCO3, 40 µg/mL gentamicin and 8% human serum at 37 °C under 3% CO2. For in vitro antimalarial assay, parasite was treated with serial dilutions of the inhibitors, and parasite survival was determined using a modified microdilution radioisotope technique.

The target of experiment [4] is T1, PfHPPK-GFP (Plasmodium falciparum, UniProt Q25704). The experiment can be described thus: DSF-GTP (GFP-tagged protein differential scanning fluorimetry) thermal shift. The experiment is classed as binding. The settings on record: read-out: ΔTm (°C). The protocol:
In a preliminary screening experiment, buffer conditions were investigated, searching for conditions that provide the largest thermal shift in the presence of 1 mM ATP. DSF curves were recorded under a total of 17 different conditions, with variations in buffer nature and pH, salts nature and concentration, effect of reducing agent, MgSO4 and glycerol.
From there, protein binding properties of the hit compounds were assessed experimentally using the developed DSF-GTP assay. A total of 54 compounds were tested, including virtual screening hits and closely related structures. According to our protocol, each compound was mixed with PfHPPK-GFP and submitted to a temperature gradient from 30 °C to 90 °C at 1 °C/min while GFP fluorescence was recorded. The first derivative of the resulting curve was used to determine the melting temperature (Tm). For each set of experiments, a negative control containing DMSO was added, and ΔTm values were calculated for each compound vs. the DMSO control. […] Two compound families were identified as the most promising by our DSF-GTP assay: 5-phenylazo-2,4-diaminopyrimidines (series 1) and phenyltriazolyl-2-amino-4-pyrimidinone (series 2). In series 2, linkers of different lengths that separate the phenyl triazolyl and the pyrimidine moieties were included.
In a typical DSF-GTP experiment, a master mix containing buffer and PfHPPK-GFP was prepared in a microcentrifuge tube, corresponding to a final protein concentration of 20 μg/mL. Ligands of interest were dispensed in low-profile 96-well plates (Bio-Rad) to 1 mM final concentration, and the master mix was dispensed to a final volume of 50 μL per well. In these conditions, DMSO content was maintained constant at 2%. The microplate was sealed with adhesive film and mixed by shaking for 2 min at 800 rpm at RT. The microplate was then submitted to a DSF run on a CFX96 RT-PCR (Bio-Rad, Hercules, CA, USA). DSF program was designed by starting with a 3 min equilibration phase at 30 °C, followed by a temperature gradient of 1 °C/min until 90 °C, recording fluorescence every 0.5 °C. Fluorescence was recorded using the FAM channel (λex = 450–490 nm, λem = 510–530 nm). Curves were fitted using the Precision Melt Analysis software (Bio-Rad).
(Differential scanning fluorimetry follows unfolding on heating by fluorescence.)

Experiment [5] has as its system Plasmodium falciparum V1/S (drug resistant). The experiment can be described thus: Antimalarial activity, [3H]-hypoxanthine incorporation assay, V1/S. The experiment is classed as cell-based. The settings on record: P. falciparum V1/S (drug resistant), when no IC50 could be determined, highest tested concentration noted. The protocol:
as §1, §2

Experiment [6] deals with T1, PfHPPK-GFP. Nature of the experiment: KinaseGlo enzyme inhibition assay. The experiment is classed as biochemical. The settings on record: 1 mM compound, 10 μM HMDP and 10 μM ATP, 20 min at RT; read-out: Inhib. at 1 mM (%). As for the experimental part:
For all the compounds displaying a measurable change of Tm, PfHPPK inhibition was recorded at 10 μM HMDP and ATP and 1 mM compound using the KinaseGlo assay. These conditions were chosen to be in the reported Km range for both HMDP and ATP substrates, enabling detection of both competitive and uncompetitive inhibitors. Compounds were incubated with HMDP, ATP and HPPK-GFP for 20 min at RT, followed by addition of the KinaseGlo reagent. After 10 min equilibration, luminescence was recorded, which directly reflects the quantity of ATP left in solution at the end of the reaction. Percentages of inhibition were calculated based on a DMSO positive control and a negative control lacking HPPK-GFP. Compounds structures, ΔTm and levels of inhibition appear in Table 1 and Table 2.
PfHPPK-GFP inhibition assay was carried using the KinaseGlo Plus kit (Promega, Madison, WI, USA). In a black 96-well plate were dispensed test compounds (1 μL of 50 mM DMSO stock), master mix (100 mM Tris pH 9, 10 mM β-mercapto ethanol, 10 mM MgSO4, 0.01% w/v BSA, 10 μM HMDP and 10 μM ATP). Reaction was initiated by addition of 2 μg of enzyme, reaching a total reaction volume of 50 μL, and reaction was allowed to proceed for 20 min at RT shaking at 300 rpm. Reaction was then quenched by addition of 50 μL KinaseGlo reagent and allowed to equilibrate for 10 min at RT shaking at 300 rpm. Luminescence was recorded on a Biotek Synergy H1 plate reader (Agilent, Santa Clara, CA, USA) using an integration time of 1 s per well. Percentage of inhibition was calculated related to a positive control experiment (no enzyme added) and a negative control experiment (no inhibitor added).
Background: In Kinase-Glo more light means more ATP remaining.

T1 sequence (Q25704 entry or part of it): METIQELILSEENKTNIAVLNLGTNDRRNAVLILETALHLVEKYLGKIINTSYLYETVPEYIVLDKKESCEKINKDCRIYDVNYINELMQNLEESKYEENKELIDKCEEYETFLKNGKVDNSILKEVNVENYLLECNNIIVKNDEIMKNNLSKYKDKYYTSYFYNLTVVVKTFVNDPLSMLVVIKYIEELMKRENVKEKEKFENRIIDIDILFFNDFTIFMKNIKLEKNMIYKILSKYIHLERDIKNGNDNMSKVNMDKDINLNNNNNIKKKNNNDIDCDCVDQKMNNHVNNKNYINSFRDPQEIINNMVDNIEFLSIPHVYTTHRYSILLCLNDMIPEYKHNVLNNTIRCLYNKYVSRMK

Usually IC50 stands for the point on the concentration scale where inhibition reaches its midpoint. One may read the ΔTm as the change in melting temperature against a reference sample. As for `COc1nc(N)nc(N)c1/N=N/c1cccc([N+](=O)[O-])c1` [Compound 1, (E)-6-Methoxy-5-((3-nitrophenyl)diazenyl)pyrimidine-2,4-diamine], the concentration for half-maximal inhibition (IC50) in experiment [1] was over 100 µM; in experiment [2], over 100 µM; in experiment [3], over 100 µM; in experiment [5], 21 µM; in experiment [5] (Plasmodium falciparum), 21 µM. Also, the ΔTm at 1000 µM at PfHPPK-GFP [4] is -1 °C. In addition, the inhibition at 1000 µM on PfHPPK-GFP [6] stood at 2.5 ± 1.4%.

Take `Cc1nc(N)[nH]c(=O)c1Cc1cn(-c2cccc(C(=O)O)c2)nn1` [Compound 7, 2-Amino-6-methyl-5-((1-(3-(carboxy)phenyl)-1H-1,2,3-triazol-4-yl)methyl)pyrimidin-4(3H)-one]: the concentration for half-maximal inhibition (IC50) in experiment [1], in experiment [2], in experiment [3] and in experiment [5] (Plasmodium falciparum) was over 25 µM each time. Moreover, at PfHPPK-GFP [4], the ΔTm at 1000 µM is -1 °C. Besides, at PfHPPK-GFP [6], the inhibition at 1000 µM was found to be 9.2 ± 1.5%.

For `CCc1nc(N)[nH]c(=O)c1Cc1cn(-c2cccc([N+](=O)[O-])c2)nn1` [Compound 10, 2-Amino-6-ethyl-5-((1-(3-(nitro)phenyl)-1H-1,2,3-triazol-4-yl)methyl)pyrimidin-4(3H)-one hydrochloride], the 50% inhibitory concentration (IC50) in experiment [1], in experiment [2], in experiment [3] and in experiment [5] (Plasmodium falciparum) was over 50 µM each time. The ΔTm at 1000 µM at PfHPPK-GFP [4] was -1.2 ± 0.3 °C. Moreover, the inhibition at 1000 µM at PfHPPK-GFP [6] was 12.1 ± 4%.

Take `Nc1nc(N)c(/N=N/c2cccc(C(=O)O)c2)c(N)n1` [Compound 5, (E)-3-((2,4,6-Triaminopyrimidin-5-yl)diazenyl)benzoic acid]: the IC50 in experiment [3] and in experiment [5] (Plasmodium falciparum) was over 10 µM each time. Moreover, the ΔTm at 1000 µM at PfHPPK-GFP [4] was -1 °C. Also, the inhibition at 1000 µM at PfHPPK-GFP [6] worked out at 14.6 ± 3.2%.

In the case of `CCc1nc(N)[nH]c(=O)c1Cc1cn(-c2ccc(C(=O)O)cc2)nn1` [Compound 8, 2-Amino-6-ethyl-5-((1-(4-(carboxy)phenyl)-1H-1,2,3-triazol-4-yl)methyl)pyrimidin-4(3H)-one], the IC50 in experiment [1], in experiment [2], in experiment [3] and in experiment [5] (Plasmodium falciparum) was over 50 µM in each case. Moreover, on PfHPPK-GFP [4], the ΔTm at 1000 µM is -1.2 ± 0.3 °C. Further, the inhibition at 1000 µM at PfHPPK-GFP [6] is 6.9 ± 2%.

As for `CCc1nc(N)[nH]c(=O)c1CCc1cn(-c2cccc(C(=O)O)c2)nn1` [Compound 12, 2-Amino-6-ethyl-5-(2-(1-(3-(carboxy)phenyl)-1H-1,2,3-triazol-4-yl)ethyl)pyrimidin-4(3H)-one hydrochloride], the IC50 in experiment [1], in experiment [2], in experiment [3] and in experiment [5] (Plasmodium falciparum) was over 50 µM each time. For the same compound, the ΔTm at 1000 µM at PfHPPK-GFP [4] was -1.3 ± 0.3 °C. Moreover, the inhibition at 1000 µM on PfHPPK-GFP [6] was determined as 24.5 ± 2.3%.

On to `CCc1nc(N)[nH]c(=O)c1Cc1cn(-c2cccc(C(=O)O)c2)nn1` [Compound 9, 2-Amino-6-ethyl-5-((1-(3-(carboxy)phenyl)-1H-1,2,3-triazol-4-yl)methyl)pyrimidin-4(3H)-one], for which the IC50 in experiment [1], in experiment [2], in experiment [3] and in experiment [5] (Plasmodium falciparum) was over 50 µM each time. In addition, on PfHPPK-GFP [4], the thermal shift (ΔTm) at 1000 µM was -1 °C. Also, at PfHPPK-GFP [6], the inhibition at 1000 µM is 16.4 ± 2.9%.

Regarding `Cc1nc(N)[nH]c(=O)c1Cc1cn(-c2ccc(C(=O)O)cc2)nn1` [Compound 6, 2-Amino-6-methyl-5-((1-(4-(carboxy)phenyl)-1H-1,2,3-triazol-4-yl)methyl)pyrimidin-4(3H)-one], the half-inhibitory concentration (IC50) in experiment [1], in experiment [2], in experiment [3] and in experiment [5] (Plasmodium falciparum) was over 25 µM in each case. Besides, the ΔTm at 1000 µM at PfHPPK-GFP [4] was -1 °C. Also, the inhibition at 1000 µM at PfHPPK-GFP [6] worked out at 1.8 ± 0.6%.

`COC(=O)c1cccc(/N=N/c2c(N)nc(N)nc2Cl)c1` [Compound 2, Methyl (E)-3-((2,4-diamino-6-chloropyrimidin-5-yl)diazenyl) benzoate]: the concentration for half-maximal inhibition (IC50) in experiment [1] is over 100 µM; in experiment [2], over 100 µM; in experiment [3], over 100 µM; in experiment [5], 89.2 µM; in experiment [5] (Plasmodium falciparum), 89.2 µM. Also, the thermal shift (ΔTm) at 1000 µM at PfHPPK-GFP [4] is -1 °C. Besides, the inhibition at 1000 µM at PfHPPK-GFP [6] was found to be 11 ± 4.8%.
